Activity calls are given as the source filed them. No cut-off for these calls is given here.
Columns and labels:
Mus musculus [1] = assay: Anxiolytic-like activity in albino Swiss mouse assessed as increase in number of punished crossings at 1 mg/kg, ip dosed 30 mins before test by four plate test; assay type: functional, organism-based
Mus musculus [2] = assay: Antidepressant-like activity in albino Swiss mouse assessed as reduction in immobility time at 10 mg/kg, ip dosed 30 mins before test by forced swim test; assay type: functional; design: scale not given: the % may be the effect or the level left
Mus musculus [3] = assay: Toxicity in albino Swiss mouse assessed as effect on spontaneous locomotor activity at 1 mg/kg, ip dosed 30 mins before test measured for 1 min 15 secs by M3 multichannel activity test; assay type: organism-based; details: in vivo
Mus musculus [4] = assay: Toxicity in albino Swiss mouse assessed as effect on spontaneous locomotor activity at 10 mg/kg, ip dosed 30 mins before test measured for 2 to 6 mins by M3 multichannel activity test; assay type: organism-based; details: in vivo

CC1CCN(CC[C@H]2CCCN2S(=O)(=O)c2cccc(O)c2)CC1
Activity (Mus musculus [1]): Active | Activity (Mus musculus [2]): 33% | Activity (Mus musculus [3]): Non-toxic | Activity (Mus musculus [4]): Non-toxic

Source: ChEMBL document CHEMBL3739404, “Arylsulfonamide derivatives of (aryloxy)ethylpiperidines as selective 5-HT7receptor antagonists and their psychotropic properties” (Medchemcomm, 2015)
